Assay results taken from PubChem BioAssay (NCI).
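Growth conditions: 96-well plates. Treatment: test compound, 48 hours, 5 concentrations. Analysis: linear interpolation between bracketing concentrations; unreached endpoints set to highest concentration. Here, GI50 denotes the concentration required for 50% inhibition of growth. TGI denotes the concentration required for complete inhibition of growth.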

How the values were obtained:
Assay in all cases: inhibition of tumour cell growth, NCI panel, 48 h
[1] = test system: CCRF-CEM leukemia
[2] = test system: HCT-116 colon
[3] = test system: K-562 leukemia
[4] = test system: IGROV1 ovarian
[5] = test system: HCT-15 colon
[6] = test system: U251 CNS
[7] = test system: SF-268 CNS
[8] = test system: T-47D breast
[9] = test system: MDA-N

## COc1ccc(C2CCc3cc4c(cc3/C2=N/OC(C)=O)OCO4)cc1OC (configuration not stated)
[1]
  TGI: > 100 µM
[2]
  TGI: 28.1 µM
[3]
  TGI: > 100 µM
[4]
  TGI: > 100 µM
[5]
  TGI: > 100 µM
[6]
  TGI: > 100 µM
[7]
  TGI: > 100 µM

## COc1cc(NC(=O)Nc2cnc(Nc3ccc(N4CCOCC4)cc3)nc2Oc2cccc(OC)c2)cc(OC)c1
[1]
  GI50: > 50 µM
  TGI: > 50 µM
[2]
  GI50: 1.1 µM
  TGI: 2.74 µM
[8]
  GI50: 2.14 µM
  TGI: > 50 µM
[4]
  GI50: 1.8 µM
  TGI: 7.77 µM
[5]
  GI50: 5.35 µM
  TGI: > 50 µM
[6]
  GI50: 1.63 µM
  TGI: 5.05 µM
[7]
  GI50: 2.07 µM
  TGI: 12.3 µM

## CSC1=NCC2(S1)c1ccccc1N(C(=O)OC(C)(C)C)C2N1CCCCC1 (configuration not stated)
[1]
  GI50: > 100 µM
  TGI: > 100 µM
[2]
  GI50: 40.6 µM
  TGI: > 100 µM
[3]
  GI50: 73.8 µM
  TGI: > 100 µM
[4]
  GI50: > 100 µM
  TGI: > 100 µM
[7]
  GI50: 74.4 µM
  TGI: > 100 µM

## Nc1[nH]c(=O)ncc1CO
[1]
  GI50: > 100 µM
  TGI: > 100 µM
[2]
  GI50: > 100 µM
  TGI: > 100 µM
[8]
  GI50: > 100 µM
  TGI: > 100 µM
[3]
  GI50: > 100 µM
  TGI: > 100 µM
[4]
  GI50: > 100 µM
  TGI: > 100 µM
[5]
  GI50: > 100 µM
  TGI: > 100 µM
[6]
  GI50: > 100 µM
  TGI: > 100 µM
[7]
  GI50: > 100 µM
  TGI: > 100 µM

## CC1CC2(C)CC(=O)C1C1C(=O)N(CCN3CCCCC3)C(=O)C12 (configuration not stated)
[1]
  GI50: > 100 µM
  TGI: > 100 µM
[2]
  GI50: > 100 µM
  TGI: > 100 µM
[8]
  GI50: > 100 µM
  TGI: > 100 µM
[3]
  GI50: > 100 µM
  TGI: > 100 µM
[4]
  GI50: > 100 µM
  TGI: > 100 µM
[5]
  GI50: > 100 µM
  TGI: > 100 µM
[6]
  GI50: > 100 µM
  TGI: > 100 µM
[7]
  GI50: > 100 µM
  TGI: > 100 µM

## C=[CH][Sn]([CH]=C)([O]c1cccc2cccnc12)[O]c1cccc2cccnc12
[2]
  GI50: 1.12 µM
  TGI: 2.46 µM
[3]
  GI50: 2.73 µM
  TGI: > 24.9 µM
[4]
  GI50: 3.31 µM
  TGI: 11 µM
[5]
  GI50: 2.36 µM
  TGI: 6.4 µM
[6]
  GI50: 2.58 µM
  TGI: 6.67 µM
[7]
  GI50: 5.12 µM
  TGI: 29.9 µM

## O=C(Nc1ccccc1C(=O)N/N=C(\c1ccccc1)c1ccccn1)c1ccc(F)cc1
[1]
  GI50: 0.121 µM
  TGI: > 100 µM
[2]
  GI50: 0.266 µM
  TGI: > 100 µM
[8]
  GI50: 0.394 µM
  TGI: > 100 µM
[3]
  GI50: 0.519 µM
  TGI: > 100 µM
[4]
  GI50: 0.198 µM
  TGI: > 100 µM
[5]
  GI50: 0.0426 µM
  TGI: > 100 µM
[6]
  GI50: 0.297 µM
  TGI: > 100 µM
[7]
  GI50: 0.364 µM
  TGI: > 100 µM

## Oc1ccc(Cl)cc1Cc1cc(Cl)ccc1O
[1]
  GI50: 2.43 µM
  TGI: 9.79 µM
[2]
  GI50: 2.6 µM
  TGI: 7.08 µM
[8]
  GI50: 2.18 µM
  TGI: 7.3 µM
[3]
  GI50: 3.3 µM
  TGI: 13.7 µM
[4]
  GI50: 3.34 µM
  TGI: 12.5 µM
[5]
  GI50: 3.26 µM
  TGI: 12.3 µM
[6]
  GI50: 2.32 µM
  TGI: 11.6 µM
[7]
  GI50: 2.81 µM
  TGI: 11.3 µM

## CN1CCN(c2nc(-c3ccncc3)nc3sc4c(c23)CCCCCC4)CC1
[1]
  GI50: 8.05 µM
  TGI: 28.8 µM
[2]
  GI50: 5.13 µM
  TGI: 17.7 µM
[8]
  GI50: 13.5 µM
  TGI: 29.3 µM
[3]
  GI50: 3.53 µM
  TGI: 16.3 µM
[4]
  GI50: 8.16 µM
  TGI: 22 µM
[5]
  GI50: 11.3 µM
  TGI: 24.3 µM
[6]
  GI50: 9.29 µM
  TGI: 25 µM
[7]
  GI50: 5.34 µM
  TGI: 20.7 µM

## O=c1[nH]c2ccccc2n1-c1n[nH]c2ccccc12
[1]
  GI50: 15.2 µM
  TGI: > 100 µM
[2]
  GI50: 24.6 µM
  TGI: 67.5 µM
[8]
  GI50: 29.5 µM
  TGI: 98.2 µM
[3]
  GI50: 31.3 µM
  TGI: > 100 µM
[4]
  GI50: 8.29 µM
  TGI: > 100 µM
[5]
  GI50: 31 µM
  TGI: > 100 µM
[6]
  GI50: 31.3 µM
  TGI: > 100 µM
[7]
  GI50: 25.1 µM
  TGI: > 100 µM

## CC(C)C(=O)Oc1cc2c(=O)oc3c(OC(=O)C(C)C)c(OC(=O)C(C)C)cc4c(=O)oc(c1OC(=O)C(C)C)c2c34
[1]
  TGI: > 100 µM
[2]
  TGI: > 100 µM
[9]
  TGI: > 100 µM
[3]
  TGI: > 100 µM
[4]
  TGI: > 100 µM
[5]
  TGI: > 100 µM
[6]
  TGI: > 100 µM
[7]
  TGI: > 100 µM

## CCN(CC)CCN(C(=O)C(C)(C)C)c1ccccc1N
[1]
  TGI: > 100 µM
[2]
  TGI: > 100 µM
[9]
  TGI: > 100 µM
[3]
  TGI: > 100 µM
[4]
  TGI: > 100 µM
[5]
  TGI: > 100 µM
[6]
  TGI: > 100 µM
[7]
  TGI: > 100 µM

## CC1(C)CC[C@]2(C(N)=O)CC[C@]3(C)C(=CC[C@@H]4[C@@]5(C)C/C(=C/c6ccncc6)C(=O)C(C)(C)[C@@H]5CC[C@]43C)[C@@H]2C1
[1]
  GI50: 2.13 µM
  TGI: 5.45 µM
[2]
  GI50: 1.49 µM
  TGI: 2.99 µM
[8]
  GI50: 2.55 µM
  TGI: 12.4 µM
[3]
  GI50: 2.28 µM
  TGI: 6.71 µM
[4]
  GI50: 2.29 µM
  TGI: 6.6 µM
[5]
  GI50: 1.69 µM
  TGI: 3.46 µM
[6]
  GI50: 1.69 µM
  TGI: 3.27 µM
[7]
  GI50: 2.15 µM
  TGI: 5.49 µM

## CC1(C)OC2C(COS(N)(=O)=O)SC(n3cnc4cncnc43)C2O1 (configuration not stated)
[1]
  GI50: > 100 µM
  TGI: > 100 µM
[2]
  GI50: > 100 µM
  TGI: > 100 µM
[8]
  GI50: > 100 µM
  TGI: > 100 µM
[3]
  GI50: > 100 µM
  TGI: > 100 µM
[4]
  GI50: > 100 µM
  TGI: > 100 µM
[5]
  GI50: > 100 µM
  TGI: > 100 µM
[6]
  GI50: > 100 µM
  TGI: > 100 µM
[7]
  GI50: > 100 µM
  TGI: > 100 µM

## C/C=C1\C(=O)OC2CCN3CCC(COC(=O)C(C)(O)C(C)C1O)C23 (configuration not stated)
[2]
  TGI: > 100 µM
[9]
  TGI: > 100 µM
[8]
  TGI: > 100 µM
[3]
  TGI: > 100 µM
[4]
  TGI: > 100 µM
[5]
  TGI: > 100 µM
[6]
  TGI: > 100 µM
[7]
  TGI: > 100 µM

## CCC1CNC(=O)CC1CC(=O)OC (configuration not stated)
[2]
  TGI: > 100 µM
[3]
  TGI: > 100 µM
[4]
  TGI: > 100 µM
[5]
  TGI: > 100 µM
[6]
  TGI: > 100 µM
[7]
  TGI: > 100 µM

## O=C(Cc1csc2nc(-c3ccc(Br)cc3)cn12)N/N=C/c1ccc(O)cc1
[1]
  GI50: 12.2 µM
  TGI: 79.9 µM
[2]
  GI50: 10.5 µM
  TGI: 24.2 µM
[8]
  GI50: 31.8 µM
  TGI: > 100 µM
[3]
  GI50: 1.83 µM
  TGI: 7.02 µM
[4]
  GI50: 10.6 µM
  TGI: 39.7 µM
[5]
  GI50: 17.9 µM
  TGI: 61.5 µM
[6]
  GI50: 21.3 µM
  TGI: > 100 µM
[7]
  GI50: > 100 µM
  TGI: > 100 µM
